In one experiment the target is Somatostatin receptor. Put plainly: Tested for binding affinity against somatostatin receptor on AtT-20 cells. In kind it is cell-based. Conditions: att20; call rule not given here.
The target in experiment [1] is Somatostatin receptor type 4 (Homo sapiens, UniProt P31391). The experiment can be described thus: Tested for binding affinity against human somatostatin receptor subtype 4 (hSSTR4).
Experiment [2] relates to Substance-P receptor (Homo sapiens), P25103 [Q165A]. The experiment can be described thus: Inhibition against Q165A mutant NK1 receptor expressed in CHO cells, using [125]SP as radioligand at 1 uM. Format: cell-based.
Experiment [3] has as its target T1, Substance-K receptor (Homo sapiens, UniProt P21452).
T1 sequence (P21452 whole entry): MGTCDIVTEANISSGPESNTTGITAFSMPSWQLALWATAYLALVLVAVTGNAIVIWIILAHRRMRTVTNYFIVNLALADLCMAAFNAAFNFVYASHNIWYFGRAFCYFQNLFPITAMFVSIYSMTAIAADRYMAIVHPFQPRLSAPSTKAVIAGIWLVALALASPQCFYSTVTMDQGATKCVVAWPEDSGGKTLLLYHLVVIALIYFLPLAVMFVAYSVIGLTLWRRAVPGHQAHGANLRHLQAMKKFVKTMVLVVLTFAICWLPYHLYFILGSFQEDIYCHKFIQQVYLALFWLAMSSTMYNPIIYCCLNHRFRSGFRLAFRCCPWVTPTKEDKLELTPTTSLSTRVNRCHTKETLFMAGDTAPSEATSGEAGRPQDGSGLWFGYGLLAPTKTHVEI
Put plainly: Tested for binding affinity against Tachykinin receptor 2 expressed in CHO cells, using [125]SP as radioligand. In kind it is cell-based.

Experiment [4] addresses Substance-P receptor (Homo sapiens, UniProt P25103, Q165A). Put plainly: Tested for binding affinity against Q165A mutant NK1 receptor expressed in CHO cells, using [125]SP as radioligand. In kind it is cell-based.
Experiment [5] deals with Substance-P receptor (Homo sapiens, UniProt P25103, H197A). The experiment can be described thus: Tested for binding affinity against H197A mutant NK1 receptor using [125]SP radioligand in COS cells. Format: cell-based.
Experiment [6] deals with T2, Substance-P receptor (Homo sapiens, UniProt P25103). Put plainly: Tested for binding affinity against human wild type NK1 receptor expressed in CHO cells, using [125]SP as radioligand. Format: cell-based.
Experiment [7] has as its target Substance-P receptor (Homo sapiens, UniProt P25103, H265A). The experiment can be described thus: Tested for binding affinity against H265A mutant NK1 receptor using [125]SP radioligand in COS cells. Format: cell-based.
The target of experiment [8] is T2, Substance-P receptor. The experiment can be described thus: Tested for binding affinity against Tachykinin receptor 1 expressed in CHO cells, using [125]SP as radioligand at 1 uM. In kind it is cell-based.
In experiment [9] the target is T2, Substance-P receptor. Put plainly: Tested for binding affinity against Tachykinin receptor 1.
The target in experiment [10] is T2, Substance-P receptor. The experiment can be described thus: Tested for binding affinity against Tachykinin receptor 1 expressed in CHO cells, using [125]SP as radioligand. Format: cell-based.
The target in experiment [11] is T2, Substance-P receptor. The experiment can be described thus: Tested for binding affinity against Tachykinin receptor 1 expressed in CHO cells, using [125]SP as radioligand; NA - did not bind. Format: cell-based.
The target of experiment [12] is T1, Substance-K receptor. The experiment can be described thus: Tested for binding affinity against Tachykinin receptor 2 expressed in CHO cells, using [125]SP as radioligand; NA - did not bind. Format: cell-based.

The IC50 is the concentration that gives 50% inhibition. The low end stands for inhibition by little substance, the high end for a need for much substance. One may read the inhibition as the relative decrease from the control value, in per cent. A lower inhibition goes with a response near the control.

Substance-P receptor (Homo sapiens, UniProt P25103, H265A), sequence (P25103 whole entry H265A): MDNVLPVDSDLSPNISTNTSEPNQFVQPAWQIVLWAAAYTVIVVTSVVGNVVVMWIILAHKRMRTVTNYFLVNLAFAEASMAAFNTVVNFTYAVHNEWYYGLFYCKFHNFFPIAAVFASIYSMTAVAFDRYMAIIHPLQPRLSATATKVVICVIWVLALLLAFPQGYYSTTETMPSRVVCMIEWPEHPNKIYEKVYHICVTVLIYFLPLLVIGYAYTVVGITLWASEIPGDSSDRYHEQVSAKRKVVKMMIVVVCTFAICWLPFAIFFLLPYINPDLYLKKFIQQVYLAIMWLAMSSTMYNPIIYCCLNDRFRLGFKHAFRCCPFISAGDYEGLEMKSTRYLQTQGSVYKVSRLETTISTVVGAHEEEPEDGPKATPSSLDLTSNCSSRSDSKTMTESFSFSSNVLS
T2 sequence (P25103 whole entry): as the sequence (P25103 whole entry H265A) above, with A265H counted along it
Substance-P receptor (Homo sapiens, UniProt P25103, H197A), sequence (P25103 whole entry H197A): as the sequence (P25103 whole entry H265A) above, with H197A, A265H counted along it
Substance-P receptor (Homo sapiens), P25103 [Q165A], sequence (P25103 whole entry Q165A): as the sequence (P25103 whole entry H265A) above, with Q165A, A265H counted along it
Substance-P receptor (Homo sapiens, UniProt P25103, Q165A), sequence (P25103 whole entry Q165A): as the sequence (P25103 whole entry H265A) above, with Q165A, A265H counted along it
Somatostatin receptor type 4, sequence (P31391 whole entry): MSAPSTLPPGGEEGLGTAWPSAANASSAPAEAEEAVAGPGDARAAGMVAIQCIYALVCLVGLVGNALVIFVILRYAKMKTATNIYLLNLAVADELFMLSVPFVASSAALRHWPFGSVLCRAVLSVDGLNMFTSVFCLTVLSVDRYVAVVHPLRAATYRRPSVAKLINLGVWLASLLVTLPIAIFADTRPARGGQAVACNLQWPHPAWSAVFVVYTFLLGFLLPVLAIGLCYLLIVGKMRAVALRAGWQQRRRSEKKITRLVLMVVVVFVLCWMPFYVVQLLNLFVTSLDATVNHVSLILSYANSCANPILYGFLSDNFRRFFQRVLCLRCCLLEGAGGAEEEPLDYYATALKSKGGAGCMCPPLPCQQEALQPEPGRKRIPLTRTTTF

In the case of `C[C@@H](O)[C@@H]1NC(=O)[C@H](CCCCN)C2C(=O)[C@@H](Cc3c2[nH]c2ccccc32)NC(=O)[C@H](Cc2ccccc2)NC(=O)[C@@H]2CCCC2C(=O)[C@H](Cc2ccccc2)NC1=O` (stereo not given in full), the values for the IC50 (on Somatostatin receptor; in [1]) were 15000 nM and 100 nM, respectively.

`C[C@@H](O)[C@@H]1NC(=O)[C@H](Cc2ccc(F)cc2)NC(=O)[C@@H](Cc2c[nH]c3ccccc23)NC(=O)[C@H](Cc2ccccc2)NC(=O)[C@H](Cc2ccccc2)NC(=O)[C@H](CC(N)=O)NC(=O)[C@H](CCCCN)NC(=O)[C@@H](N)CSSC[C@H](C(=O)O)NC(=O)[C@H](CO)NC(=O)[C@H]([C@@H](C)O)NC(=O)[C@H](Cc2ccccc2)NC1=O` displayed an inhibition in experiment [2] of 37%.

Turning to `C[C@H](NC(=O)CN)C(=O)N[C@H]1CSSC[C@@H](C(=O)O)NC(=O)[C@H](CO)NC(=O)[C@H]([C@@H](C)O)NC(=O)[C@H](Cc2ccccc2)NC(=O)[C@H]([C@@H](C)O)NC(=O)[C@H](CCCCN)NC(=O)[C@H](Cc2c[nH]c3ccccc23)NC(=O)[C@H](Cc2ccccc2)NC(=O)[C@H](Cc2ccccc2)NC(=O)[C@H](CC(N)=O)NC(=O)[C@H](CCCCN)NC1=O`, the IC50 on Substance-K receptor [3] amounted to 850 nM.

Consider `C[C@H](NC(=O)CN)C(=O)N[C@H]1CSSC[C@@H](C(=O)O)NC(=O)[C@H](CO)NC(=O)[C@H]([C@@H](C)O)NC(=O)[C@H](Cc2ccccc2)NC(=O)[C@H]([C@@H](C)O)NC(=O)[C@H](Cc2ccc(F)cc2)NC(=O)[C@H](Cc2c[nH]c3ccccc23)NC(=O)[C@H](Cc2ccccc2)NC(=O)[C@H](Cc2ccccc2)NC(=O)[C@H](CC(N)=O)NC(=O)[C@H](CCCCN)NC1=O`, for which the IC50 is 3600 nM on Substance-P receptor [4]; 2700 nM at Substance-P receptor [5]; 730 nM on Substance-K receptor [3]; 1400 nM on Substance-P receptor [6]; 8200 nM on Substance-P receptor [7].

As to `C[C@H](NC(=O)CN)C(=O)N[C@H]1CSSC[C@H](C(=O)O)NC(=O)[C@H](CO)NC(=O)[C@H]([C@@H](C)O)NC(=O)[C@H](Cc2ccccc2)NC(=O)[C@H]([C@@H](C)O)NC(=O)[C@H](CCCCN)NC(=O)[C@H](Cc2c[nH]c3ccccc23)NC(=O)[C@H](Cc2ccccc2)NC(=O)[C@H](Cc2ccccc2)NC(=O)[C@H](CC(N)=O)NC(=O)[C@H](CCCCN)NC1=O`, at Substance-P receptor [8], the inhibition is 7%.

Consider `NCCCCCOC[C@H]1O[C@@H](OCCc2c[nH]c3ccccc23)[C@H](OCc2ccccc2)[C@@H](OCc2ccccc2)[C@@H]1OCc1ccccc1`, for which, at Substance-P receptor [9], the IC50 turned out to be 120 nM.

For `C[C@@H](O)[C@@H]1NC(=O)[C@H](Cc2ccccc2)NC(=O)[C@H]([C@@H](C)O)NC(=O)[C@H](Cc2ccc(F)cc2)NC(=O)[C@@H](Cc2c[nH]c3ccccc23)NC(=O)[C@H](Cc2ccccc2)NC(=O)[C@H](Cc2ccccc2)NC(=O)[C@H](CC(N)=O)NC(=O)[C@H](CCCCN)NC(=O)[C@@H](N)CSSC[C@@H](C(=O)O)NC(=O)[C@H](CO)NC1=O`, the IC50 on Substance-P receptor [5] was found to be 900 nM; at Substance-K receptor [3] it was 46 nM; on Substance-P receptor [6], 260 nM; at Substance-P receptor [7] it was 9600 nM; on Substance-P receptor [10] it was 250 nM.

As for `C[C@H](NC(=O)CN)C(=O)N[C@H]1CSSC[C@H](C(=O)O)NC(=O)[C@H](CO)NC(=O)[C@H]([C@@H](C)O)NC(=O)[C@H](Cc2ccccc2)NC(=O)[C@H]([C@@H](C)O)NC(=O)[C@H](Cc2ccc(F)cc2)NC(=O)[C@@H](Cc2c[nH]c3ccccc23)NC(=O)[C@H](Cc2ccccc2)NC(=O)[C@H](Cc2ccccc2)NC(=O)[C@H](CC(N)=O)NC(=O)[C@H](CCCCN)NC1=O`, the inhibition in experiment [2] came out at 30%.

For `C[C@H](NC(=O)CN)C(=O)N[C@H]1CSSC[C@@H](C(=O)O)NC(=O)[C@H](CO)NC(=O)[C@H]([C@@H](C)O)NC(=O)[C@H](Cc2ccccc2)NC(=O)[C@H]([C@@H](C)O)NC(=O)[C@H](Cc2ccc(F)cc2)NC(=O)[C@@H](Cc2c[nH]c3ccccc23)NC(=O)[C@H](Cc2ccccc2)NC(=O)[C@H](Cc2ccccc2)NC(=O)[C@H](CC(N)=O)NC(=O)[C@H](CCCCN)NC1=O`, the IC50 is 950 nM on Substance-P receptor [5]; 27 nM on Substance-K receptor [3]; 240 nM at Substance-P receptor [6]; 6100 nM at Substance-P receptor [7]; 220 nM on Substance-P receptor [10].

In the case of `C[C@H](NC(=O)CN)C(=O)N[C@H]1CSSC[C@H](C(=O)O)NC(=O)[C@H](CO)NC(=O)[C@H]([C@@H](C)O)NC(=O)[C@H](Cc2ccccc2)NC(=O)[C@H]([C@@H](C)O)NC(=O)[C@H](CCCCN)NC(=O)[C@@H](Cc2c[nH]c3ccccc23)NC(=O)[C@H](Cc2ccccc2)NC(=O)[C@H](Cc2ccccc2)NC(=O)[C@H](CC(N)=O)NC(=O)[C@H](CCCCN)NC1=O`, the IC50 result on Substance-P receptor [11] and at Substance-K receptor [12] was “Not Active” each time.

On Substance-P receptor [9], `C[C@@H](O)[C@@H]1NC(=O)[C@H](Cc2ccc(F)cc2)C2C(=O)[C@@H](Cc3c2[nH]c2ccccc32)NC(=O)[C@H](Cc2ccccc2)NC(=O)[C@@H]2CCCC2C(=O)[C@H](Cc2ccccc2)NC1=O` (stereo not given in full) yielded an IC50 of 28 nM.

The record behind these values is ChEMBL document CHEMBL1133015 (J Med Chem, 2000).
